Our source for the MIC90 values is ChEMBL document CHEMBL2095176, “GSK Tuberculosis Screening Data”.

SMILES strings stand for the structures. In brackets after ≈: the same amount, converted by molar mass.

For the test, the system named is Mycobacterium tuberculosis variant bovis BCG. The test is described as follows: microbe, parasite or virus in culture. The test is classed as functional.
Take `COc1ccc(-c2cncc(-c3cc(N4CCN(CCO)CC4)nc(-c4ccccc4)n3)c2)cc1`: the MIC90 worked out at 7.9 µM (≈ 3.69 µg/mL).
`Cc1ccc2nc(C(F)(F)F)c(C(=O)NCc3cc(Cl)cc(Cl)c3)n2c1` showed an MIC90 of 0.6 µM (≈ 0.241 µg/mL).
As for `O=C(Nc1cccc(C(=O)N2CCCC(c3nc4ccccc4s3)C2)c1)c1cccs1` (stereo not given), the figure is 3.6 µM (≈ 1.61 µg/mL); as for `COc1ccc(-c2ccc(Nc3cccc(S(=O)(=O)CCNCCc4cccs4)c3)nc2)cn1`, 7.2 µM (≈ 3.56 µg/mL); as for `Nc1cccnc1Nc1ccc(Cl)cc1`, 1.1 µM (≈ 0.242 µg/mL).
As for `COc1cc(Nc2ccccc2)ccc1NS(=O)(=O)c1ccc(-c2cc(C(F)(F)F)n(C)n2)s1`, the figure is 2.8 µM (≈ 1.42 µg/mL).
With `Cn1c(Sc2ccnc(N3CCN(c4ccncc4)CC3)n2)nnc1C(N)=O` the figure was 6.9 µM (≈ 2.74 µg/mL); with `CSc1ccc(C(=O)Nc2nnc(-c3ccc4c(c3)CCCC4)o2)cc1`, 7 µM (≈ 2.56 µg/mL); with `O=C(Nc1ccccc1-c1nc(C2CCC2)cs1)OCC1CCNCC1.O=C(O)C(F)(F)F`, 6.4 µM.
Turning to `c1cc2c(s1)CCOC21CCN(Cc2ccc3c(c2)OCCO3)CC1`, the MIC90 came out at 1.6 µM (≈ 0.572 µg/mL).
With `CC[C@H]1CN2CC[C@@H]1C[C@H]2[C@H](O)c1cc(-c2cccnc2)nc2ccc(OC)cc12` the figure was 8.3 µM (≈ 3.35 µg/mL); with `O=C(Nc1nnc(-c2ccc(Cl)s2)o1)c1ccc(Cl)s1`, 7.5 µM (≈ 2.6 µg/mL); with `Cc1sc2nc(C3CC3)n(C3CCN(CC(=O)N4CCCC4)CC3)c(=O)c2c1C`, 5 µM (≈ 2.07 µg/mL).
As for `c1cc(Oc2ccnc(N3CCC4(CCNC4)CC3)n2)c2cc[nH]c2c1`, the figure is 7.5 µM (≈ 2.62 µg/mL); as for `O=C(COc1ccccc1F)Nc1nc(-c2ccccn2)cs1`, 8.7 µM (≈ 2.87 µg/mL).
`O=C(Nc1cccc(Cl)c1)NC12CC3CC(CC(C3)C1)C2`: the MIC90 was 6.3 µM (≈ 1.92 µg/mL).
In the case of `O=C(CSc1nc(-c2ccccc2)cs1)NNC(=O)c1cccs1`, the MIC90 is 9.8 µM (≈ 3.68 µg/mL).
With `O=C(Nc1nc(-c2ccccn2)cs1)c1ccco1` the figure was 4.5 µM (≈ 1.22 µg/mL); with `CCOc1ccc(-n2nc3c(C)nnc(NCc4ccccc4)c3c2C)cc1`, 4.8 µM (≈ 1.79 µg/mL).
As for `c1ccc(-c2ccc(CN3CCC4(CC3)OCCc3sccc34)s2)cc1`, the figure is 4.7 µM (≈ 1.79 µg/mL); as for `COc1ccccc1NC(=O)CN(Cc1ccco1)C(=O)c1cccc(-n2cnnn2)c1`, 7.7 µM (≈ 3.33 µg/mL).
With `CCc1c(C)nc(-n2nc(C)cc2NC(=O)C(CC)c2ccccc2)[nH]c1=O` (stereo not given) the figure was 1.2 µM (≈ 0.455 µg/mL); with `CCOc1ncccc1C(=O)Nc1ccccc1Nc1ccccc1`, 6.4 µM (≈ 2.13 µg/mL); with `Cc1nnc(SCC(=O)NNC(=O)c2ccco2)nc1O`, 3 µM (≈ 0.928 µg/mL).
Consider `CN(CCOc1cccc(-c2ccc(C(=O)N3CCCC3)cc2)c1)Cc1ccc(F)cc1`, for which the MIC90 was 7.8 µM (≈ 3.37 µg/mL).
With `Cc1ccc(C(=O)Nc2nnc(-c3ccccc3Cl)o2)cc1` the figure was 6.1 µM (≈ 1.91 µg/mL); with `COc1ccc(Nc2ccccc2N)cc1Cl`, 2.3 µM (≈ 0.572 µg/mL).
`CCCOC(=O)COc1ccc2c(=O)c(-c3ccccc3OC)coc2c1` had an MIC90 of 9.8 µM (≈ 3.61 µg/mL).
With `CC1=NN(C(=O)c2ccncc2)C(O)(c2ccncc2)C1` (stereo not given) the figure was 2.6 µM (≈ 0.734 µg/mL); with `Cc1cc(/C=C/c2cccc(C(=O)O)c2)cc(Cl)c1OC[C@@H]1CCCN1C`, 9.5 µM (≈ 3.67 µg/mL).
With `O=C(c1cccc(-n2cnnn2)c1)N1CCCCC1c1nc2ccccc2s1` (stereo not given) the figure was 8 µM (≈ 3.12 µg/mL).
As for `CCc1cc(=O)[nH]c(-n2nc(C)cc2NC(=O)c2cc3ccccc3o2)n1`, the figure is 3.8 µM (≈ 1.38 µg/mL); as for `Cc1occc1C(=O)Nc1nc(-c2ccccn2)nc2ccsc12`, 1.1 µM (≈ 0.37 µg/mL); as for `CSc1ccc(-c2nnc(NC(=O)c3cccc(F)c3)o2)cc1`, 3.9 µM (≈ 1.28 µg/mL).
With `CS(=O)(=O)c1oc(-c2cccs2)nc1S(=O)(=O)c1ccc(F)cc1`, the MIC90 was 6.9 µM (≈ 2.67 µg/mL).
As for `COc1ccc(N2CCN(c3ccc(C#N)cc3C(F)(F)F)CC2)c(OC)c1`, the figure is 3.7 µM (≈ 1.45 µg/mL); as for `COc1ccc(NC(=O)c2ccc(CN3CCCCC3)o2)c(OC)c1`, 7.2 µM (≈ 2.48 µg/mL).
In the case of `CS(=O)(=O)c1cccc(C(=O)Nc2nc(-c3ccccn3)cs2)c1`, the MIC90 came to 3.3 µM (≈ 1.19 µg/mL).
With `Cc1cc(C)cc(Oc2ncnc(N3CCCC3CN)c2C)c1` (stereo not given) the figure was 7.5 µM (≈ 2.34 µg/mL).
Regarding `Cc1c(C(=O)Nc2ccccc2)nnc2cc(-c3ccccc3)nn12`, the MIC90 turned out to be 3.1 µM (≈ 1.02 µg/mL).
In turn, `CN(C)S(=O)(=O)c1ccc(C(=O)Nc2nnc(-c3ccc(Br)cc3)o2)cc1` returned an MIC90 of 8 µM (≈ 3.61 µg/mL).
As for `Cc1cc(Cl)cc2nc(N3CCCNCC3)oc12`, the figure is 6.4 µM (≈ 1.7 µg/mL); as for `CCOC(=O)c1cc(-c2csc(Nc3c(C)cc(C)cc3C)n2)on1`, 7.7 µM (≈ 2.75 µg/mL); as for `COc1cccc(-c2cc(OC[C@@H]3CCCN3)cnc2-c2cccc(C(F)(F)F)c2)c1`, 5.9 µM (≈ 2.53 µg/mL).
As for `Fc1ccc2[nH]c(-c3cccc(-c4ccc(CNCCN5CCNCC5)cc4)c3)nc2c1`, the figure is 6.7 µM (≈ 2.88 µg/mL); as for `O=C(NNC(=O)c1cccs1)c1ccc(-c2cccc(C(F)(F)F)c2)o1`, 4.3 µM (≈ 1.64 µg/mL).
With `O=C(Nc1nnc(-c2ccc3c(c2)CCCC3)o1)c1ccc(Br)s1` the figure was 4.3 µM (≈ 1.74 µg/mL); with `CN(Cc1nc2ccccc2s1)C(=O)c1cccc(NC(=O)c2cccs2)c1`, 1.4 µM (≈ 0.571 µg/mL); with `COc1ccc(-c2ccc(Nc3cccc(S(=O)(=O)CCNC4CCC4)c3)nc2)cn1`, 1.6 µM (≈ 0.702 µg/mL).
As to `COc1ccc(-c2nc(-c3cccc(NC(=O)Cc4ccc(F)cc4)c3)no2)cc1OC`, the MIC90 came to 2.3 µM (≈ 0.997 µg/mL).
With `Cc1ccc(C(=O)N2N=C(C(F)(F)F)CC2(O)c2ccncc2)cc1` (stereo not given) the figure was 4.4 µM (≈ 1.54 µg/mL).
The compound `Cc1cc(Oc2cccc3[nH]ccc23)nc(N2CCNCC2)n1` yielded an MIC90 of 6.2 µM (≈ 1.92 µg/mL).
For the compound `COCCNc1nc(N2CCCC2)c2c(c1C#N)CCN(C)C2`, the MIC90 stood at 0.8 µM (≈ 0.252 µg/mL).
With `CCCCNC(=O)c1cccc(-c2ccc(OCc3ccccc3)cc2)c1` the figure was 9.9 µM (≈ 3.56 µg/mL); with `c1cncc(NCc2ccc(-c3cc4ccncc4cc3OC3CCNCC3)s2)c1`, 8.3 µM (≈ 3.46 µg/mL).
Turning to `COc1ccc(-c2ccc(Nc3cccc(S(=O)(=O)CCN4CCc5ccccc5C4)c3)nc2)cn1`, the MIC90 stood at 3.6 µM (≈ 1.8 µg/mL).
`O=c1c2sc(-c3ccc(Cl)cc3)cc2ncn1-c1ccc(OCCN2CCCC2)c(Cl)c1`: the MIC90 came to 2.1 µM (≈ 1.02 µg/mL).
`CCOc1ccc(-c2nc(-c3ccc(C(F)(F)F)c(O[C@@H]4CCN(C)C4)c3)no2)cc1` displayed an MIC90 of 3.2 µM (≈ 1.39 µg/mL).
Take `O=C(Nc1nnc(-c2ccc(Br)cc2)o1)c1cccc(F)c1`: the MIC90 is 2.2 µM (≈ 0.797 µg/mL).
With `O=C(COc1ccc(Cl)cc1)NNC(=O)c1cccs1` the figure was 4.2 µM (≈ 1.31 µg/mL); with `CN(Cc1ccccc1)c1ncc(-c2ccc(CNCC3CCCO3)cc2)cn1` (stereo not given), 8.7 µM (≈ 3.38 µg/mL).
As for `CSc1cccc(C(=O)Nc2nc(-c3ccccn3)cs2)c1`, the figure is 4.6 µM (≈ 1.51 µg/mL); as for `Cc1ccc(-n2ncc3c(N4CCCNCC4)nc(C4CC4)nc32)cc1`, 3.9 µM (≈ 1.36 µg/mL); as for `CCOC(=O)c1csc(-c2ccccc2NC(=O)OCC2CCNCC2)n1`, 9.3 µM (≈ 3.62 µg/mL).
As for `O=C(Nc1nc(-c2ccccn2)cs1)c1cccc(-n2cnnn2)c1`, the figure is 8.5 µM (≈ 2.97 µg/mL); as for `Cc1cc(NC(=O)c2cccs2)n(-c2nc(C)c(C)c(=O)[nH]2)n1`, 1.8 µM (≈ 0.593 µg/mL).
Compound `C[C@H]1CN(Cc2cccc(-c3cc(CNC(=O)c4ccc(CC5CCNCC5)cc4)ccc3F)c2)CCN1` gave an MIC90 of 4.7 µM (≈ 2.42 µg/mL).
As for `CN(C)c1nc2scc(-c3ccccc3)c2c(=O)o1`, the figure is 1.5 µM (≈ 0.408 µg/mL); as for `c1ccc(Nc2cc(-c3ccccc3)nc(-c3ccccn3)n2)cc1`, 3.7 µM (≈ 1.2 µg/mL).
As for `O=C(Nc1nnc(-c2ccccc2)o1)c1ccc2c(c1)CCCC2`, the figure is 4.1 µM (≈ 1.31 µg/mL).
